Values joined by “and” are separate entries in the source; they are usually repeats but may differ in a detail not shown here. Identical values can stand only once. Inconclusive results and toxic doses are left out. No stated cut-off is given here; in the data, active means T/C of 150% or more; inactive means T/C below 125%.
Test system: L1210 leukemia ip in BDF1 mice, survival T/C
Test: NCI In Vivo Anticancer Drug Screen. Data for tumor model L1210 Leukemia (intraperitoneal) in B6D2F1 (BDF1) mice
Details: endpoint: mean survival time, higher = longer survival
Outline: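 Read-out is survival time, reported as the treated-group measurement over the vehicle-control measurement.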

[1] = dose: 50.0 mg/kg/injection, schedule: Q04DX003 (ip), vehicle: Klucel (hydroxypropylcellulose) (HPC)
[2] = dose: 100.0 mg/kg/injection, schedule: Q04DX003 (ip), vehicle: Klucel (hydroxypropylcellulose) (HPC)
[3] = dose: 200.0 mg/kg/injection, schedule: Q04DX003 (ip), vehicle: Klucel (hydroxypropylcellulose) (HPC)
[4] = dose: 25.0 mg/kg/injection, schedule: Q01DX009 (ip), vehicle: saline
[5] = dose: 50.0 mg/kg/injection, schedule: Q01DX001 (ip), vehicle: carboxymethylcellulose (CMC)
[6] = dose: 50.0 mg/kg/injection, schedule: Q01DX009 (ip), vehicle: saline
[7] = dose: 100.0 mg/kg/injection, schedule: Q01DX001 (ip), vehicle: carboxymethylcellulose (CMC)
[8] = dose: 100.0 mg/kg/injection, schedule: Q01DX009 (ip), vehicle: Klucel (hydroxypropylcellulose) (HPC)
[9] = dose: 200.0 mg/kg/injection, schedule: Q01DX009 (ip), vehicle: Klucel (hydroxypropylcellulose) (HPC)
[10] = dose: 400.0 mg/kg/injection, schedule: Q01DX009 (ip), vehicle: Klucel (hydroxypropylcellulose) (HPC)
[11] = dose: 400.0 mg/kg/injection, schedule: Q04DX003 (ip), vehicle: Klucel (hydroxypropylcellulose) (HPC)
[12] = dose: 50.0 mg/kg/injection, schedule: Q01DX009 (ip), vehicle: Klucel (hydroxypropylcellulose) (HPC)
[13] = dose: 100.0 mg/kg/injection, schedule: Q04DX003 (ip), vehicle: saline
[14] = dose: 100.0 mg/kg/injection, schedule: Q01DX001 (ip), vehicle: saline
[15] = dose: 200.0 mg/kg/injection, schedule: Q01DX001 (ip), vehicle: saline
[16] = dose: 400.0 mg/kg/injection, schedule: Q01DX001 (ip), vehicle: saline
[17] = dose: 100.0 mg/kg/injection, schedule: Q01DX009 (ip), vehicle: saline

Measured: T/C

O=C(CCCCCCC(=O)C[N+]12CCC(CC1)C(O)C2)C[N+]12CCC(CC1)C(O)C2 (configuration not stated)
inactive: dose: 0.15 mg/kg/injection, schedule: Q04DX003 (ip), vehicle: saline 102 % of control | dose: 0.3 mg/kg/injection, schedule: Q04DX003 (ip), vehicle: saline 100 % of control | dose: 0.6 mg/kg/injection, schedule: Q04DX003 (ip), vehicle: saline 102 % of control

O=C(O)C(Sc1ccc(Cl)cc1)Sc1ccc(Cl)cc1
inactive: [1] 103 % of control | [2] 103 % of control | [3] 95 % of control

O=c1[nH]cnc2c1ncn2CCCCCCl
inactive: [2] 102 % of control

COC(=O)[C@@H]1c2cc3c(c(O)c2[C@@H](OC)C[C@@]1(C)O)C(=O)c1c(O)cc2c(c1C3=O)OC1O[C@@]2(C)[C@H](O)[C@@H](N(C)C)[C@@H]1O
inactive: dose: 3.12 mg/kg/injection, schedule: Q01DX015 (ip), vehicle: carboxymethylcellulose (CMC) 104 % of control | dose: 6.25 mg/kg/injection, schedule: Q01DX009 (ip), vehicle: saline 106 % of control | dose: 6.25 mg/kg/injection, schedule: Q01DX015 (ip), vehicle: carboxymethylcellulose (CMC) 108 % of control | dose: 12.5 mg/kg/injection, schedule: Q01DX009 (ip), vehicle: saline 112 % of control | dose: 12.5 mg/kg/injection, schedule: Q01DX015 (ip), vehicle: carboxymethylcellulose (CMC) 120 % of control | [4] 109 % of control | [5] 105 % of control | [6] 112 % of control | dose: 50.0 mg/kg/injection, schedule: Q01DX015 (ip), vehicle: carboxymethylcellulose (CMC) 122 % of control | [7] 117 % of control

CCOC(=O)NC(CC)CO (configuration not stated)
inactive: [8] 96 % of control | [2] 96 % of control | [9] 92 % of control | [3] 104 % of control | [10] 108 % of control | [11] 96 % of control

[Cl][Ge]([Cl])([c]1ccccc1)[c]1ccccc1
inactive: [12] 96 % of control | [8] 96 % of control | [2] 98 % of control | [3] 94 % of control

Clc1ccc2c(Cl)ccnc2c1
inactive: dose: 100.0 mg/kg/injection, schedule: Q04DX002 (ip), vehicle: gum acacia 91 % of control | dose: 200.0 mg/kg/injection, schedule: Q04DX002 (ip), vehicle: gum acacia 95 % of control

CC1CCCCC1=C(C#N)C#N (configuration not stated)
inactive: dose: 5.0 mg/kg/injection, schedule: Q01DX001 (ip), vehicle: saline 97 % of control | dose: 10.0 mg/kg/injection, schedule: Q01DX001 (ip), vehicle: saline 121 % of control | dose: 20.0 mg/kg/injection, schedule: Q01DX001 (ip), vehicle: saline 94 % of control | dose: 40.0 mg/kg/injection, schedule: Q01DX001 (ip), vehicle: saline 103 % of control

O=Ic1ccccc1
inactive: dose: 25.0 mg/kg/injection, schedule: Q01DX009 (ip), vehicle: Klucel (hydroxypropylcellulose) (HPC) 103 % of control | [12] 98 % of control | [1] 93 % of control | [2] 89 % of control

NC(=O)c1cccc([N+](=O)[O-])c1Br
inactive: [2] 103 % of control | [3] 98 % of control

CN(C)CCC(O)c1ccc(Cl)cc1 (configuration not stated)
inactive: [13] 102 % of control | dose: 200.0 mg/kg/injection, schedule: Q04DX003 (ip), vehicle: saline 98 % of control

CCCCCCCCCCCCCCCC(=O)O
inactive: [8] 100 % of control | [2] 98 % of control | [9] 92 % of control | [3] 98 % of control | [10] 97 % of control | [11] 97 % of control

O=C(O)/C=C/c1cnccn1
inactive: dose: 100.0 mg/kg/injection, schedule: Q04DX003 (ip), vehicle: carboxymethylcellulose (CMC) 103 % of control | dose: 200.0 mg/kg/injection, schedule: Q04DX003 (ip), vehicle: carboxymethylcellulose (CMC) 93 % of control | dose: 400.0 mg/kg/injection, schedule: Q04DX003 (ip), vehicle: carboxymethylcellulose (CMC) 97 % of control

O=C(O)C(O)(C1CCCCC1)C1CCC2CCC3CCCC1C32 (configuration not stated)
inactive: dose: 100.0 mg/kg/injection, schedule: Q01DX009 (ip), vehicle: saline with Tween-80 87 % of control

Nc1ncnc2c1ncn2C1OC(CO)C(O)C1OCc1ccccc1 (configuration not stated)
inactive: dose: 100.0 mg/kg/injection, schedule: Q01DX005 (ip), vehicle: saline 90 % of control | dose: 200.0 mg/kg/injection, schedule: Q01DX005 (ip), vehicle: saline 103 % of control

C[N+](C)(C)Cc1c(CC(O)(c2ccccc2)c2ccccc2)ccc2ccccc12
inactive: [5] 102 % of control | [7] 94 % of control

O=C(Nc1ccccc1)Oc1ccc(Br)cc1Br
inactive: dose: 75.0 mg/kg/injection, schedule: Q01DX001 (ip), vehicle: saline 94 % of control | dose: 150.0 mg/kg/injection, schedule: Q01DX001 (ip), vehicle: saline 89 % of control | dose: 300.0 mg/kg/injection, schedule: Q01DX001 (ip), vehicle: saline 94 % of control

Ic1ncnc2c1ncn2C1CCCCO1 (configuration not stated)
inactive: dose: 31.0 mg/kg/injection, schedule: Q01DX Z (ip), vehicle: other 111 % of control | dose: 62.0 mg/kg/injection, schedule: Q01DX Z (ip), vehicle: other 109 % of control | [14] 98 % of control | dose: 100.0 mg/kg/injection, schedule: Q01DX009 (ip), vehicle: saline sonified 96 % of control | [2] 93 % of control | dose: 125.0 mg/kg/injection, schedule: Q01DX Z (ip), vehicle: other 103 % of control | [15] 107 % of control | dose: 200.0 mg/kg/injection, schedule: Q01DX009 (ip), vehicle: saline sonified 93 % of control | [3] 94 % of control | dose: 250.0 mg/kg/injection, schedule: Q01DX Z (ip), vehicle: other 111 % of control | dose: 375.0 mg/kg/injection, schedule: Q01DX Z (ip), vehicle: other 114 % of control | [16] 104 % of control | [11] 98 % of control | dose: 500.0 mg/kg/injection, schedule: Q01DX Z (ip), vehicle: other 121 % of control

CC1OC(=O)NC1C(=O)O (configuration not stated)
inactive: [14] 120 % of control | [17] 91 % of control | dose: 100.0 mg/kg/injection, schedule: Q04DX003 (ip), vehicle: saline with Tween-80 106 % of control | [15] 98 % of control | dose: 200.0 mg/kg/injection, schedule: Q01DX009 (ip), vehicle: saline 101 % of control | dose: 200.0 mg/kg/injection, schedule: Q04DX003 (ip), vehicle: saline with Tween-80 103 % of control | [16] 101 % of control | dose: 400.0 mg/kg/injection, schedule: Q01DX009 (ip), vehicle: saline 89 % of control | dose: 400.0 mg/kg/injection, schedule: Q04DX003 (ip), vehicle: saline with Tween-80 95 % of control

CN(C)Cc1ccccc1COC(=O)c1ccc([N+](=O)[O-])cc1
inactive: dose: 75.0 mg/kg/injection, schedule: Q04DX002 (ip), vehicle: Klucel (hydroxypropylcellulose) (HPC) 97 % of control | dose: 150.0 mg/kg/injection, schedule: Q04DX002 (ip), vehicle: Klucel (hydroxypropylcellulose) (HPC) 105 % of control | dose: 300.0 mg/kg/injection, schedule: Q04DX002 (ip), vehicle: Klucel (hydroxypropylcellulose) (HPC) 97 % of control

Cc1ccccc1NC(=O)Nc1ccccc1C
inactive: [8] 97 % of control | [9] 106 % of control | [10] 93 % of control

O=C(NC1CCCCC1c1ccccc1)c1ccccc1 (configuration not stated)
inactive: dose: 75.0 mg/kg/injection, schedule: Q01DX001 (ip), vehicle: carboxymethylcellulose (CMC) 97 % of control and 95 % of control | dose: 150.0 mg/kg/injection, schedule: Q01DX001 (ip), vehicle: carboxymethylcellulose (CMC) 97 % of control and 91 % of control | dose: 300.0 mg/kg/injection, schedule: Q01DX001 (ip), vehicle: carboxymethylcellulose (CMC) 94 % of control and 89 % of control

Cc1cc(C)c(S(=O)(=O)O)c(Cc2cccc3ccccc23)c1
inactive: [4] 94 % of control | [6] 102 % of control | dose: 50.0 mg/kg/injection, schedule: Q04DX003 (ip), vehicle: saline 94 % of control | [14] 93 % of control | [17] 96 % of control | [13] 98 % of control | [15] 88 % of control

Source: PubChem BioAssay AID248 (DTP/NCI, 2004)
